The values that follow come from patent US11116721B2, “Pharmaceutical formulations comprising 4-{(1R)-2-[(6-{2-[(2,6-dichlorobenzyl)oxy]ethoxy}hexyl)amino]-1-hydroxyethyl}-2-(hydroxymethyl) phenol” (Glaxo Group Limited, priority 2009, dated 2021).

Series [1] has as its system COPD patients. Description: Clinical pharmacology studies of Compound (I) in COPD patients (FEV1). It counts as in vivo, human. The note with it: 100 mcg and 400 mcg, with lactose alone. The text has this:
(§1) Compound (I) as the α-phenylcinnamate salt and the triphenylacetate salt has been studied in a number of clinical pharmacology studies, including single- and repeat-dose studies. In addition, these studies have evaluated Compound (I) with the excipients cellobiose octaacetate and magnesium stearate.
In COPD patients, treatment with 100 mcg and 400 mcg Compound (I) alpha-phenylcinnamate (with lactose alone) achieved a clinically relevant adjusted mean difference from placebo in weighted mean trough FEV1 (22 to 24 hrs) of >100 mL.

Series [2] deals with asthmatic patients. In words: Clinical pharmacology studies of Compound (I) in asthmatic patients (FEV1). It counts as in vivo, human. The following applies: all doses of Compound (I).
Source text: as §1
In one study in asthmatic patients 100 mcg of Compound (I) triphenylacetate formulated with lactose and magnesium stearate has shown a favourable onset of action.

In series [3] the test system is beta-2 adrenoreceptor. In words: Animal and human studies of Compound (I): bronchodilation and safety. Format: in vivo.
The test system of series [4] is asthmatic patients. Description: Clinical pharmacology studies of Compound (II) in asthmatic patients (FEV1). Format: in vivo, human. The note with it: doses of from 100 to 400 mcg. The text has this:
Compound (II) has been studied in a number of clinical pharmacology studies, including single- and repeat-dose studies and at a range of doses. In addition, these studies have evaluated Compound (II) with the excipients cellobiose octaacetate and magnesium stearate.

Series [5] can be described thus: Studies of Compound (II) in animal models and humans. It counts as in vivo.

In the case of `O=C(O)C(=Cc1ccccc1)c1ccccc1.OCc1cc([C@@H](O)CNCCCCCCOCCOCc2c(Cl)cccc2Cl)ccc1O` [Compound (I) alpha-phenylcinnamate, 4-{(1R)-2-[(6-{2-[(2,6-dichlorobenzyl)oxy]ethoxy}hexyl)amino]-1-hydroxyethyl}-2-(hydroxymethyl)phenol α-phenylcinnamate], the “adjusted mean difference from placebo in weighted mean trough FEV1 (22 to 24 hrs)” value in series [1] is greater than 100 mL.

For the compound `OCc1cc([C@@H](O)CNCCCCCCOCCOCc2c(Cl)cccc2Cl)ccc1O` [Compound (I), 4-{(1R)-2-[(6-{2-[(2,6-dichlorobenzyl)oxy]ethoxy}hexyl)amino]-1-hydroxyethyl}-2-(hydroxymethyl)phenol], the “improvement in trough (24-hour) FEV1 compared to placebo” value in series [2] was “statistically and clinically significant improvement”. In addition, in series [3], the bronchodilation result is listed as “sustained bronchodilation over a 24 hour period” and the safety profile result was “favourable safety profile”.

For the compound `C[C@@H]1CC2C3C[C@H](F)C4=CC(=O)C=C[C@]4(C)[C@@]3(F)[C@@H](O)C[C@]2(C)[C@@]1(OC(=O)c1ccco1)C(=O)SCF` (stereo partly drawn) [Compound (II), 6α, 9α-difluoro-17α-[(2-furanylcarbonyl)oxy]-11β-hydroxy-16α-methyl-3-oxo-androsta-1,4-diene-17β-carbothioic acid S-fluoromethyl ester], the “improvement in trough (24-hour) FEV1 compared to placebo” value in series [4] is “statistically and clinically significant improvement”. Further, in series [5], the “duration of action (inhaled glucocorticosteroid)” value is “long acting”.
